US10556889B1, “Salvinorin derivatives” (Blue Sky Pharmaceuticals, LLC, priority 2018, dated 2020)
Read-outs that look alike come from different tables or passages of the source.

What was measured:
uOR [1] = target: T1, uOR (Mus musculus, UniProt P42866); test: β-arrestin recruitment to uOR / receptor internalization; type: cell-based; parameters: expressed in transfected cells
Excerpt: The data provided in Tables 1A and 1B below were obtained using standard analytical techniques known to those skilled in the art. Such techniques are described in detail in C.
[…] were transiently transfected (electroporation) with combinations of cDNA for hemagglutinin (HA-N terminus)-tagged uOR, beta-arrestin2 tagged with green fluorescent protein, mouse uOR tagged at the C terminus with yellow fluorescent protein and GRK-2. […] After addition of drug, cells were visualized using confocal microscopy. Multiple cells were recorded per dish after more than four separate transfection experiments—representative cells are shown in the manuscript.
The “β-arrestin Recruitment EC50±SEM” column in Table 2 below represents the degree to which each tested compound recruited beta-arrestin to interact with uOR. As will be appreciated by those skilled in the art, EC50 refers to the concentration of a drug which induces a response halfway between the baseline and maximum after a specified exposure time. In this instance, lower values indicate greater potency of the molecule, and this is […].
As will also be understood by those skilled in the art, “Max Fold Efficacy” refers to the maximum signal/background ratio that an agonist will induce or, conversely, that an antagonist will inhibit an agonist from inducing a response. In Table 2 below, the “Max Fold Efficacy” column indicates the strength of the signal increase over the control/background measurement for uOR receptor internalization at the E.C. 50.

uOR [2] = target: T1, uOR; test: Agonist induced ERK 1/2 phosphorylation (efficacy and potency relative to DAMGO)
[3] = maximum signal/background ratio for uOR receptor internalization at the EC50
[4] = recruitment of beta-arrestin to interact with uOR, bound given in μM, read-out: β-arrestin Recruitment EC50 ± SEM

T1 sequence (P42866 whole entry): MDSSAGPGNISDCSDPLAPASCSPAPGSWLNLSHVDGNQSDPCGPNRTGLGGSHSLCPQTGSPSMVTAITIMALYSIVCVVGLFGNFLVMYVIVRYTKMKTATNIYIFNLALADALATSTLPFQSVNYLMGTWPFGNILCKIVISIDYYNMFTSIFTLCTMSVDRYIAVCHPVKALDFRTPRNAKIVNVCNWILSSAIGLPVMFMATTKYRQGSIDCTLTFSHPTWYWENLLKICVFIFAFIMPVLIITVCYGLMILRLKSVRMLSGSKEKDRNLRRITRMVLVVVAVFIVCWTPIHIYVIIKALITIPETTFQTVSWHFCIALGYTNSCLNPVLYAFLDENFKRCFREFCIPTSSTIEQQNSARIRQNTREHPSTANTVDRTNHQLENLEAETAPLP

Compound	Max Fold Efficacy (uOR [1]; [3])	EC50 (uOR [1]; [4]) [µM]	EC50 (uOR [2]) [nM]	EC50 (uOR [1]) [µM]	Max Fold Efficacy (uOR [1])
COC(=O)[C@@H]1C[C@H](OC(=O)Nc2ccc(C)cc2)C(=O)[C@H]2[C@@]1(C)CC[C@H]1C(=O)O[C@H](c3ccoc3)C[C@]21C [Formula Ia-ii]	8.8	> 10	108		
COC(=O)[C@@H]1C[C@H](OC(=O)c2cnc(C)cn2)C(=O)[C@H]2[C@@]1(C)CC[C@H]1C(=O)O[C@H](c3ccoc3)C[C@]21C	1.8	> 10	1280		
COC(=O)[C@@H]1C[C@H](OC(=O)c2cc(C)cs2)C(=O)[C@H]2[C@@]1(C)CC[C@H]1C(=O)O[C@H](c3ccoc3)C[C@]21C [Formula Id-iii]	6.1	> 10	377		
COC(=O)[C@@H]1C[C@H](NC(=O)NC(=O)c2ccccc2)C(=O)[C@H]2[C@@]1(C)CC[C@H]1C(=O)O[C@H](c3ccoc3)C[C@]21C [Formula Ib-i]	3.14	> 10	610		
COC(=O)[C@@H]1C[C@H](OC(=O)c2ccc(C(F)(F)F)cc2)C(=O)[C@H]2[C@@]1(C)CC[C@H]1C(=O)O[C@H](c3ccoc3)C[C@]21C		> 10	930		
COC(=O)[C@@H]1C[C@H](OC(=O)Nc2cnc(C)cn2)C(=O)[C@H]2[C@@]1(C)CC[C@H]1C(=O)O[C@H](c3ccoc3)C[C@]21C [Formula Ic-iii]	9.5	> 10	35.7		
COC(=O)[C@@H]1C[C@H](NC(=O)c2ccccc2)C(=O)[C@H]2[C@@]1(C)CC[C@H]1C(=O)O[C@H](c3ccoc3)C[C@]21C	21.73		0.232	9.19 ± 2.75	
COC(=O)[C@@H]1C[C@H](OC(=O)c2ccccc2)C(=O)[C@H]2[C@@]1(C)CC[C@H]1C(=O)O[C@H](c3ccoc3)C[C@]21C	2.4	> 10	1110		
COC(=O)[C@@H]1C[C@H](OC(=O)c2cc(C)on2)C(=O)[C@H]2[C@@]1(C)CC[C@H]1C(=O)O[C@H](c3ccoc3)C[C@]21C	1.3	> 10	1750		
COC(=O)[C@@H]1C[C@H](OC(=O)NC(=O)c2ccccc2)C(=O)[C@H]2[C@@]1(C)CC[C@H]1C(=O)O[C@H](c3ccoc3)C[C@]21C [Formula Ib-ii]	4.8	> 10	633		
COC(=O)[C@@H]1C[C@H](OC(=O)Nc2ccc(C(F)(F)F)cc2)C(=O)[C@H]2[C@@]1(C)CC[C@H]1C(=O)O[C@H](c3ccoc3)C[C@]21C [Formula Ia-vi]	5.1	> 10	327		
COC(=O)[C@@H]1C[C@H](NC(=O)NS(=O)(=O)c2ccc(Cl)cc2)C(=O)[C@H]2[C@@]1(C)CC[C@H]1C(=O)O[C@H](c3ccoc3)C[C@]21C		> 10	> 10000		
COC(=O)[C@@H]1C[C@H](OC(=O)Nc2csc(C)n2)C(=O)[C@H]2[C@@]1(C)CC[C@H]1C(=O)O[C@H](c3ccoc3)C[C@]21C [Formula Ic-i]	31.3		0.854	2.07 ± 0.649	
COC(=O)[C@@H]1C[C@H](OC(=O)c2ccon2)C(=O)[C@H]2[C@@]1(C)CC[C@H]1C(=O)O[C@H](c3ccoc3)C[C@]21C	1	> 10	3780		
COC(=O)[C@@H]1C[C@H](OC(=O)Nc2ccccc2)C(=O)[C@H]2[C@@]1(C)CC[C@H]1C(=O)O[C@H](c3ccoc3)C[C@]21C		> 10	1200		
COC(=O)[C@@H]1C[C@H](OC(=O)Nc2cnc(C)nc2)C(=O)[C@H]2[C@@]1(C)CC[C@H]1C(=O)O[C@H](c3ccoc3)C[C@]21C [Formula Ic-iv]	2.8	> 10	79.1		
Met-Enkephalin [reference compound]					38.3
COC(=O)[C@@H]1C[C@H](OC(=O)Nc2ccc(C#N)cc2)C(=O)[C@H]2[C@@]1(C)CC[C@H]1C(=O)O[C@H](c3ccoc3)C[C@]21C [Formula Ia-i]	9.5		35.5	9.85 ± 0.153	
